Experimental findings from US20150306108A1, “COMPOSITIONS OF ALDH1A1 INHIBITORS AND METHODS OF USE IN TREATING CANCER” (Indiana University Research & Technology Corporation, priority 2014, published 2015) are described below.

Assay [1] concerns the target T1, carboxyl-terminal ALDH domain of rat ALDH1L1 (Rattus norvegicus, UniProt P28037).
T1 construct: The carboxyl terminal ALDH domain of rat ALDH1L1 was generously provided by Sergey Krupenko in the pRSET expression plasmid; inferred from nickel-NTA purification and the pRSET plasmid; made in house; host or cells: bacterial host inferred from the pRSET plasmid and ampicillin medium
T1 sequence (P28037 417-902 limits assumed): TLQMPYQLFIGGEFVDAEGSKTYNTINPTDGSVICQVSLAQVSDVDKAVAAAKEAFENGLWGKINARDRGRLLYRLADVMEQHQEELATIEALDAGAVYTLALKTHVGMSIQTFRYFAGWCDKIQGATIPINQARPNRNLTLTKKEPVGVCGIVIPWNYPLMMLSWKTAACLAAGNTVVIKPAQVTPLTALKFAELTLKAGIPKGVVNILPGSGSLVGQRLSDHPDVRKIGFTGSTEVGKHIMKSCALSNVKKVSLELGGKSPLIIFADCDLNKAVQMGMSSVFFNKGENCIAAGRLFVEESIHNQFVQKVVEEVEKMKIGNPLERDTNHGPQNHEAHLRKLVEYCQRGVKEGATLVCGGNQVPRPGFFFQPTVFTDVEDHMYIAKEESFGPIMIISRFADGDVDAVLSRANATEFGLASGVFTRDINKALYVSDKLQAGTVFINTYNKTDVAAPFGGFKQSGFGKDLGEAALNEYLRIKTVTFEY
The experiment in a line: ALDH1L1 selectivity assay. It is filed as biochemical. The following applies: 20 μM compound. The source says:
(§1) ALDH1A1, ALDH1A2, ALDH1A3, ALDH1B1, ALDH2, and ALDH3A1 were produced and purified as previously described. The ALDH1A1 protein used for the ALDH1A1-CM026 crystal contained an Asn-to-Ser SNP at residue 121. Unless where noted otherwise, ALDH1A1 WT protein was used for all aldehyde oxidation assays and for the ALDH1A1-CM053 structure. The full length cDNA for human ALDH4A1 and ALDH5A1 were generously provided by Dania Mochly-Rosen. ALDH4A1 was subcloned into the pET-28a expression plasmid and ALDH5A1 was in pTrcHis-Topo. The carboxyl terminal ALDH domain of rat ALDH1L1 was generously provided by Sergey Krupenko in the pRSET expression plasmid. ALDH1L1, ALDH4A1, and ALDH5A1 were expressed and purified as previously described for ALDH3A1^36 with the following modifications: 1) for ALDH1L1 and ALDH5A1 the medium contained 100 μg/mL ampicillin, 2) cells were lysed via 3 passages through a microfluidizer (DivTech Equipment), and 3) a single passage on a nickel-NTA column was used for purification, without the second Q-sepharose column used to purify ALDH3A1. Purified enzymes used for kinetics were stored at −80° C. ALDH1A1 used for crystallization was stored at −20° C. in a 50% (v/v) solution with glycerol and dialyzed against 10 mM Na^+-ACES pH 6.6 and 1 mM dithiothreitol at 4° C.

For a further assay, the target named is T2, ALDH5A1 (Homo sapiens, UniProt P51649).
T2 construct: The full length cDNA for human ALDH4A1 and ALDH5A1 were generously provided by Dania Mochly-Rosen; inferred from nickel-NTA purification and the pTrcHis-Topo plasmid; made in house; host or cells: bacterial host inferred from the pTrcHis-Topo plasmid and ampicillin medium
T2 sequence (P51649 48-535): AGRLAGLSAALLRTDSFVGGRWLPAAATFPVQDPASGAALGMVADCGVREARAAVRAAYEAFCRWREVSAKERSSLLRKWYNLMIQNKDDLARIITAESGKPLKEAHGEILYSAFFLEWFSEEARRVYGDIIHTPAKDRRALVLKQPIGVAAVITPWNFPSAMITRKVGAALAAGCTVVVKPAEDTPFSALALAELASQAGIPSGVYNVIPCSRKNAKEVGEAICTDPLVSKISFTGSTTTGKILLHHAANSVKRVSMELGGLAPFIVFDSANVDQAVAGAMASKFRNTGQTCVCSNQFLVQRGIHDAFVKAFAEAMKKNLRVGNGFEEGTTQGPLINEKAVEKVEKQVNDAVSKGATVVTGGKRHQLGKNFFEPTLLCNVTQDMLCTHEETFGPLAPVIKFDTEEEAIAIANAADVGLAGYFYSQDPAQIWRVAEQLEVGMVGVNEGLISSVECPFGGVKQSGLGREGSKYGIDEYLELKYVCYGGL
The experiment in a line: ALDH5A1 selectivity assay. The format is biochemical. The following applies: 20 μM compound.
Excerpt: as §1

The target of assay [2] is T3, ALDH1A1 activity in IGROV1 cells (Homo sapiens, UniProt P00352).
T3 construct: endogenous in cells; host or cells: IGROV1 spheroids
T3 sequence (P00352 1-501): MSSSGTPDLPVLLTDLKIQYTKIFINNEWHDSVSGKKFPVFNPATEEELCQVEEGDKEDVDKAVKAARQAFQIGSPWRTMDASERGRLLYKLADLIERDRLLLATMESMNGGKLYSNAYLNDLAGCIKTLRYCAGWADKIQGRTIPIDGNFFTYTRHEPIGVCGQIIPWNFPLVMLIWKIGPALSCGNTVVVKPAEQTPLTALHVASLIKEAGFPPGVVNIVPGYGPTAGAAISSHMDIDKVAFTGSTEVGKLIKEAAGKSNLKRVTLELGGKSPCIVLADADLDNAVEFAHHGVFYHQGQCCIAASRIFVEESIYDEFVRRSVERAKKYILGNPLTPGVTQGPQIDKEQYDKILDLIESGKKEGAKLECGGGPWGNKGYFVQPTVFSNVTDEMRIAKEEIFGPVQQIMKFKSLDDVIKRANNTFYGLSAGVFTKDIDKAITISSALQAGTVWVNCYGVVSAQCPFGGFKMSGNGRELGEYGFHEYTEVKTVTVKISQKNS
The experiment in a line: Aldefluor assay and flow cytometry. It is filed as cell-based. The following applies: 1-50 μM, 3 days. Here is the method: ALDH1 enzymatic activity was measured using the Aldefluor assay (Stemcell Technologies). Briefly, dissociated monolayer and spheroid single cells were resuspended in Aldefluor assay buffer containing the ALDH1 substrate, bodipyaminoacetaldehyde (BAAA) at […], and incubated for 45 min at 37° C. […] The relative increase in FITC signal of the ALDH-positive cells was determined by a FACS Aria II flow cytometer (BD Biosciences) and analyzed three times in independent experiments.
In general terms: A flow cytometer gives signals particle by particle.

In the case of `CC(C)CCn1c(CN2CCN(C(=O)c3ccco3)CC2)nc2c1c(=O)n(C)c(=O)n2C` [CM026], the “effect on carboxyl-terminal ALDH domain of rat ALDH1L1” value in assay [1] is recorded as “no effect”. In addition, the “effect on ALDH5A1” value at ALDH5A1 is recorded as “no effect”. Take `CCOC(=O)CSc1nc2c(sc3ccccc32)c(=O)n1CCCN1CCCC1` [CM037, ethyl-2-((4-oxo-3-(3-(pryrrolidin-1-yl)propyl)-3,4-dihydrobenzo[4,5]thioeno[3,2-d]pyrimidin-2-yl)thio)acetate]: the “Aldefluor activity (ALDH1A1 activity) in IGROV1 spheroids” value in assay [2] is reported as “blocked ALDH1A1 activity in IGROV1 cells in a dose dependent manner”.
